What was measured:
[1] = system: mouse model of DSS-induced colitis; test: DSS-induced colitis (experimental IBD) in C57BL/6J wild-type mice; type: in vivo
Description: Six to eight week old C57BL/6J wild-type mice (n=38) were housed at the animal facilities at Virginia Tech. in a room maintained at 75° F., with a 12:12 h light-dark cycle starting from 6:00 AM. Mice were randomly divided into four groups: a control group including 8 mice and the other three NSC61610 treatment groups containing 10 mice each. The three treatment groups received 0.5, 10 or 20 mg/kg NSC61610 by orogastric gavage for 7 days. All the mice were challenged with drinking water containing 2.5% DSS, 36,000-44,000 molecular weight (ICN Biomedicals, Aurora, Ohio) for 7 days. Mice were weighed on a daily basis and examined for clinical signs of disease associated with colitis (i.e., perianal soiling, rectal bleeding, diarrhea, and piloerection). For the DSS challenge, the disease activity indices and rectal bleeding scores were calculated using a modification of a previously published compounded clinical score. Briefly, disease activity index consisted of a scoring for diarrhea and lethargy (0-3), whereas rectal bleeding consisted of a visual observation of blood in feces and the perianal area (0-4). Mice in the DSS study were euthanized on day 7 of the DSS challenge. On day 7, mice were euthanized by CO2 narcosis followed by secondary thoracotomy and blood was withdrawn from the heart. Colon, spleen, and MLN were scored based on size and macroscopic inflammatory lesions (0-3), excised, and then crushed to produce single-cell suspensions for flow cytometry.
Colonic sections were fixed in 10% buffered neutral formalin, later embedded in paraffin, and then sectioned ([…]) and stained with H&E stain for histological examination. Colons were blindly graded with a compounded histological score including the extent of (1) leukocyte infiltration. (2) mucosal thickening, and (3) epithelial cell erosion. The sections were graded with a score of 0-4 for each of the previous categories and data were analyzed as a normalized compounded score.
Total RNA was isolated from colons using the RNA isolation Minikit (Qiagen) according to the manufacturer's instructions. Total RNA ([…]) was used to generate complementary DNA (cDNA) template using the iScript cDNA Synthesis Kit (Bio-Rad, Hercules, Calif.). The total reaction volume was 20 μL with the reaction incubated as follows in an MJ MiniCycler: 5 min at 25° C., 30 min at […], 5 min at 85° C., and hold at 4° C. PCR was performed on the cDNA using Taq DNA polymerase (Invitrogen, Carlsbad, Calif.) and using previously described conditions. Each gene amplicon was purified with the MiniElute PCR Purification Kit (Qiagen) and quantitated on an agarose gel by using a DNA mass ladder (Promega). These purified amplicons were used to optimize real-time (RT)-PCR conditions and to generate standard curves. Primer concentrations and annealing temperatures were optimized for the iCycler iQ system (Bio-Rad) for each set of primers using the system's gradient protocol. PCR efficiencies were maintained between 92 and 105% and correlation coefficients above 0.98 for each primer set during optimization and also during the real-time PCR of sample DNA.
Complementary DNA (cDNA) concentrations for genes of interest were examined by real-time quantitative PCR using an iCycler IQ System and the iQ SYBR green supermix (Bio-Rad). A standard curve was generated for each gene using 10-fold dilutions of purified amplicons starting at 5 pg of cDNA and used later to calculate the starting amount of target cDNA in the unknown samples. SYBR green I is a general double-stranded DNA intercalating dye and may therefore detect non-specific products and primer/dimers in addition to the amplicon of interest. In order to determine the number of products synthesized during the real-time PCR, a melting curve analysis was performed on each product. Real-time PCR was used to measure the starting amount of nucleic acid of each unknown sample of cDNA on the same 96-well plate. […]

PPAR γ = PPAR γ reporter activity assay on 3T3-L1 pre-adipocytes; type: cell-based; conditions: 2.5 μM, 24 hours, vs untreated cells
Description: 3T3-L1 cells were plated into white, opaque 96-well plates (BD) 24 hours before transfection and grown in DMEM containing 10% fetal bovine serum (FBS) until 70% confluence. Cells were then co-transfected with 0.2 μg pCMX.PPAR γ expression plasmid expression plasmid, 0.2 μg pTK.PPRE3x luciferase reporter plasmid driven by the PPRE-containing Acyl-CoA oxidase promoter and 0.2 μg pRL reporter control using the Lipofectamine 2000 transfection reagent (Invitrogen). After 48 hr incubation at 37° C., cells were then treated in replicates of 8 with NSC61610 2.5 μM or DMSO control and incubated for 24 hr at 37° C. After incubation, cells were harvested in reporter lysis reagent and luciferase activity was determined using the Dual Luciferase II reporter assay system (Promega, Madison, Wis.) in Modulus 96-well luminometer (Turner Biosystems, Sunnyvale, Calif.). All values were normalized to control wells to calculate relative luciferase activity.

[2] = system: mouse model of DSS-induced colitis, PPAR γ fl/fl Cre−, CD4-Cre+ and Lysozyme M-Cre+ mice; test: DSS colitis in tissue-specific PPAR γ null mice; type: in vivo
Description: PPAR γ fl/fl MMTV-Cre− (n=20), tissue-specific PPAR γ fl/fl CD4-Cre+ ([…]) PPAR γ null mice (n=20) and tissue-specific PPAR γ fl/fl Lsozyme M-Cre+ (macrophage-deficient) PPAR γ null mice (n=20) littermates in a C57BL/6J background were generated by using the Cre-lox recombination system as previously described. The mice were housed at the animal facilities at Virginia Tech. in a room maintained at 75° F., with a 12:12 h light-dark cycle starting from 6:00 AM. In each group, 20 mice were randomly divided into two groups: a control group including 10 mice and a NSC61610 treatment groups containing 10 mice respectively. The three treatment groups received 20 mg/kg NSC61610 by orogastric gavage for 6 days. All the mice (n=60) were challenged with drinking water containing 2.5% DSS, 36,000-44,000 molecular weight (ICN Biomedicals, Aurora, Ohio) for 6 days. Mice were weighed on a daily basis and examined for clinical signs of disease associated with colitis (i.e., perianal soiling, rectal bleeding, diarrhea, and piloerection). For the DSS challenge, the disease activity indices and rectal bleeding scores were calculated using a modification of a previously published compounded clinical score. Briefly, disease activity index consisted of a scoring for diarrhea and lethargy (0-3), whereas rectal bleeding consisted of a visual observation of blood in feces and the perianal area (0-4). Mice in the DSS study were euthanized on day 6 of the DSS challenge. On day 6, mice were euthanized by CO2 narcosis followed by secondary thoracotomy and blood was withdrawn from the heart. Colon, spleen, and MLN were scored based on size and macroscopic inflammatory lesions (0-3), excised, and then crushed to produce single-cell suspensions for flow cytometry.

[3] = system: pandemic 2009 H1N1 influenza A California/09 virus; test: Pandemic H1N1 influenza virus infection in mice; type: in vivo
[4] = target: T1, ligand-binding domain (LBD) of PPAR γ (Homo sapiens, UniProt P37231); test: Binding of ABA to PPAR γ LBD (unpublished data)
T1 sequence (P37231 238-503 limits assumed): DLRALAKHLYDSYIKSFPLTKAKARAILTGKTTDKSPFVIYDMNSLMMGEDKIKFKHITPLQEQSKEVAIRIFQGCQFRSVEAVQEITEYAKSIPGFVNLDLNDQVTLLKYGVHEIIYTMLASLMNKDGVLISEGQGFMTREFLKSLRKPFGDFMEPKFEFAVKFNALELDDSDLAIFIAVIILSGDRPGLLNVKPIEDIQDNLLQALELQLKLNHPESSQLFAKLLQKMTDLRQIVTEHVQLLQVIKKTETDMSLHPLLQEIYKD

LANCL2 = target: T2, LANCL2 (Mus musculus, UniProt Q9JJK2); test: Western blot binding assay between ABA and LANCL2; conditions: RAW 264.7 macrophages treated with ABA for 20 minutes; re-probing western blot; control without ABA showed no band
T2 construct: Proteins were extracted from Raw 264.7 Macrophage using Radio-Immunoprecipitation Assay buffer; endogenous in cells; host or cells: RAW 264.7 macrophages
T2 sequence (Q9JJK2 1-450): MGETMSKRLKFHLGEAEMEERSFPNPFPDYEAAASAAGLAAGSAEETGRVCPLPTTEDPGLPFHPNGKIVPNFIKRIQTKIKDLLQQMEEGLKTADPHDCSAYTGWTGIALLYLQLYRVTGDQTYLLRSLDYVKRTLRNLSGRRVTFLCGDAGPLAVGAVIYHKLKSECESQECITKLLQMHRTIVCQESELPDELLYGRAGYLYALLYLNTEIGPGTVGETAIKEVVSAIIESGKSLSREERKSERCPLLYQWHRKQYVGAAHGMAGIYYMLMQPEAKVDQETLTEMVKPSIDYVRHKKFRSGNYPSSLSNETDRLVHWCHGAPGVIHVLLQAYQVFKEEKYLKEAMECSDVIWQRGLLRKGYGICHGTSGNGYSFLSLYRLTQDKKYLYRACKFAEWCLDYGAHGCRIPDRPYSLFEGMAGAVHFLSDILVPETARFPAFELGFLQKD
Description: RAW 264.7 macrophages were cultured with DMEM (Mediatech, Manassas, Va.) containing 10% fetal bovine serum (FBS) in two flasks and grown until 60-70% confluence. RAW 264.7 macrophages in one flask were treated with abscisic acid (SIGMA-ALDRICH) for 20 minutes. RAW 264.7 macrophages in the other flask without ABA were used as control. Proteins were extracted from Raw 264.7 Macrophage using Radio-Immunoprecipitation Assay buffer (RIPA) (SIGMA-ALDRICH) with inhibitors. 10% SDS-PAGE was applied to analyze the proteins in Bio-Rad mini-gel box running condition. For Western blotting, proteins were electrotransferred to nitrocellulose by standard methods along with the Presicion Plus Kaleidoscope Standard (BIO-RAD). Filters were blocked by 5% BSA in TBS-Tween for 1 hour, followed by incubation with rabbit anti-LANCL2 primary antibody (SIGMA-ALDRICH) in TBS-Tween for 6 hours at room temperature. Goat anti-rabbit horseradish peroxidase-conjugated secondary antibodie (Santa Cruz Biotechnology) was used 1:2,000 in TBS-Tween, and protein bands were detected with Immun-Star™ chemiluminescent substrate (BIO-RAD). […] Donkey anti-rat horseradish peroxidase-conjugated secondary antibodie (Santa Cruz Biotechnology) was used 1:2,000 in TBS-Tween, and protein bands were detected with Immun-Star™ chemiluminescent substrate (BIO-RAD).

[5] = 0.5, 10 and 20 mg/kg, day 7 of DSS
[6] = highest concentration, flow cytometry

O=C(Nc1cccc(-c2nc3ccccc3[nH]2)c1)c1ccc(C(=O)Nc2cccc(-c3nc4ccccc4[nH]3)c2)cc1 [NSC61610, 1-N,4-N-bis[3-(1H-benzimidazol-2-yl)phenyl]benzene-1,4-dicarboxamide]
disease activity index (DAI) ([1]; 0.5, 10 and 20 mg/kg BW orogastric gavage, 7 days, 2.5% DSS, vs untreated control mice): significantly reduced | gross inflammation in MLN [1, 5]: significantly reduced | gross inflammation in colon [1, 5]: significantly reduced | gross inflammation in spleen [1, 5]: significantly reduced | numbers of mesenteric lymph node (MLN) Treg ([1]; flow cytometry): No effect | percentage of F4/80+CD11b+ macrophages in the colonic lamina propria ([1]; flow cytometry): reduced | percentage of Treg cells in blood ([1]; flow cytometry): significantly increased | percentage of Treg cells in colon ([1]; flow cytometry): significantly increased | percentage of Treg cells in spleen ([1]; flow cytometry): significantly increased | percentage of CD4+ IL10+ T cells in MLN [1, 6]: significantly increased | percentage of CD4+ IL10+ T cells in blood [1, 6]: significantly increased | percentage of CD4+ IL10+ T cells in colon [1, 6]: significantly increased | percentage of CD4+ IL10+ T cells in spleen [1, 6]: significantly increased | PPAR γ gene expression in colon ([1]; maximum dose 20 mg/kg): enhanced PPAR γ gene expression significantly | epithelial erosion (colon histology) ([1]; mice with DSS colitis): significantly reduced | leukocyte infiltration (colon histology) ([1]; mice with DSS colitis): significantly reduced | mucosal thickening (colon histology) ([1]; mice with DSS colitis): significantly reduced | colonic expression of IL-6 ([1]; real-time quantitative PCR): significantly lowered | colonic expression of MCP-1 ([1]; real-time quantitative PCR): significantly lowered | colonic expression of TNF-α ([1]; real-time quantitative PCR): significantly lowered | PPAR γ gene expression in colon ([1]; real-time quantitative PCR, vs control mice): increased | PPAR γ expression (dual luciferase reporter) (PPAR γ): significantly elevated | disease activity index ([2]; 20 mg/kg BW for 6 days during DSS challenge, vs untreated control mice): significantly reduced | macroscopic inflammatory lesions ([2]; PPAR γ-expressing mice with DSS colitis, 20 mg/kg): significantly reduced | macroscopic inflammatory lesions ([2]; T cell-specific PPAR γ null mice with DSS colitis, 20 mg/kg): significantly reduced | effect on IBD in MLNs and spleens ([2]; macrophage-specific PPAR γ null mice, 20 mg/kg): abrogated | antigen-specific proliferation of splenocytes stimulated ex vivo with live virus ([3]; day 13 post-infection, irrespective of genotype): higher | extent of lung congestion and hyperemia (macroscopic and histological score) ([3]; infected mice, 20 mg/kg): reduced | influenza-related weight loss ([3]; infected mice, 20 mg/kg orogastric gavage daily, vs untreated infected mice): lower weight loss | body weight ([3]; infected treated mice, by day 13): began to gain weight

CC1=CC(=O)CC(C)(C)[C@@]1(O)/C=C/C(C)=C\C(=O)O [abscisic acid, [S-(Z,E)]-5-(1-Hydroxy-2,6,6-trimethyl-4-oxo-2-cyclohexen-1-yl)-3-methyl-2,4-pentanedienoic acid]
direct binding to the LBD of PPAR γ [4]: does not bind directly | band with anti-ABA antibody at the LANCL2 location on the membrane (LANCL2): clear band

Source: patent publication US9101573B2, “Lanthionine synthetase component C-like proteins as molecular targets for preventing and treating diseases and disorders” (VIRGINIA TECH INTELLECTUAL PROPERTIES, INC., priority 2010, dated 2015)
